Like-named read-outs stand apart in the source and are kept apart here. Square brackets hold non-standard residues; d marks the D form. Peptide text beside a SMILES is read from it. * marks the point of attachment. X1 = Cc1ccc(Nc2ncc3c(n2)N(C)C(=O)N(c2cc(C(=O)*)ccc2C)C3)cn1; Ac3c = NC1(C(=O)O)CC1; Aib = CC(C)(N)C(=O)O
What was measured:
LCK = LCK (Homo sapiens, UniProt P06239); test: IC50 inhibitory activity against LCK kinase; assay type: biochemical
Description: (§1) IC50 values were calculated by measuring the inhibitory activity against LCK, c-Src, p38a/MAPK14, ABL1, DDR1 and FGR kinases of the compounds of the present invention.

c-Src = c-Src (Homo sapiens, UniProt P12931); test: IC50 inhibitory activity against c-Src kinase; assay type: biochemical
c-Src, sequence (P12931 whole entry): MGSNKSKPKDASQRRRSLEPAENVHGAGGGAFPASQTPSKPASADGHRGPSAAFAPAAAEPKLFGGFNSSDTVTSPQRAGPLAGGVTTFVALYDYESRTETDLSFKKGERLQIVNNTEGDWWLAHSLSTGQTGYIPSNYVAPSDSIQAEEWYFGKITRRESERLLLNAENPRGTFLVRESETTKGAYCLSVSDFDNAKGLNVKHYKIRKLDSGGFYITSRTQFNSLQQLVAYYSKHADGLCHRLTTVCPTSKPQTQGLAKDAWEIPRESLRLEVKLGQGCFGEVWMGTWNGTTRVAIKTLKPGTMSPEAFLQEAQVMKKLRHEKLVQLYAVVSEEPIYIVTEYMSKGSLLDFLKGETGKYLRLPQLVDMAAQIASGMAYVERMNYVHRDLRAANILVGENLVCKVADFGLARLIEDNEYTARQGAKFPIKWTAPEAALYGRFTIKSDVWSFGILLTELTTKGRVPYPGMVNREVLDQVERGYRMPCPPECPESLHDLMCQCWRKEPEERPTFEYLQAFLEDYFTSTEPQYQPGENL
Description: as §1

LCK, sequence (P06239 whole entry): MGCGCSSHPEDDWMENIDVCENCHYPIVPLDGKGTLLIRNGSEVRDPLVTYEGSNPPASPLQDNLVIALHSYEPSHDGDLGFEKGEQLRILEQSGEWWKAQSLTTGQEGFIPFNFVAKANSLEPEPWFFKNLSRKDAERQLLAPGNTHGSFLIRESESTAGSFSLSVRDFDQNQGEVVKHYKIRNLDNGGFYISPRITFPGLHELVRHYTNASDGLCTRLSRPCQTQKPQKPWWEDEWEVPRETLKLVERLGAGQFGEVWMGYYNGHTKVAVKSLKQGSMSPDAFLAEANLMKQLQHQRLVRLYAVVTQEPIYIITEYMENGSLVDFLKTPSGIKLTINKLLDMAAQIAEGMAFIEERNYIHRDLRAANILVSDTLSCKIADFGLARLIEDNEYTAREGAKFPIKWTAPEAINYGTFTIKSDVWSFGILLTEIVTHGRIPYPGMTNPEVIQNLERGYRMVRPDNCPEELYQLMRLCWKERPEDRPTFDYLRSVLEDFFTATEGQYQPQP

IC50 (LCK; read-out: LCK IC50)	IC50 (c-Src; read-out: c-Src IC50)	Compound	IC50 (LCK)	IC50 (c-Src)
1 to 200 nM	1 to 200 nM	CC1=N[C@@H](CC(C)C)C(=O)N(C)c2cc(C(=O)Nc3ccc(C)c(N4Cc5cnc(Nc6ccc(C)nc6)nc5N(C)C4=O)c3)ccc21 [Example 40, (S)-3-isobutyl-1,5-dimethyl-N-(4-methyl-3-(1-methyl-7-((6-methylpyridin-3-yl)amino)-2-oxo-1,4-dihydropyrimido[4,5-d]pyrimidin-3(2H)-yl)phenyl)-2-oxo-2,3-dihydro-1H-benzo[e][1,4]diazepine-8-carboxamide]	–	–
1 to 200 nM	1 to 200 nM	Cc1ccc(Nc2ncc3c(n2)N(C)C(=O)N(c2cc(NC(=O)c4ccc5c(c4)NC(=O)[C@@H](Cc4ccccc4)N=C5c4ccccc4)ccc2C)C3)cn1 [Example 36, (R)-3-benzyl-N-(4-methyl-3-(1-methyl-7-((6-methylpyridin-3-yl)amino)-2-oxo-1,4-dihydropyrimido[4,5-d]pyrimidin-3(2H)-yl)phenyl)-2-oxo-5-phenyl-2,3-dihydro-1H-benzo[e][1,4]diazepine-8-carboxamide]	–	–
1 to 200 nM	1 to 200 nM	Cc1ccc(Nc2ncc3c(n2)N(C)C(=O)N(c2cc(NC(=O)c4ccc5c(c4)NC(=O)[C@H](Cc4ccc(F)cc4)N=C5c4ccccc4)ccc2C)C3)cn1 [Example 28, (S)-3-(4-fluorobenzyl)-N-(4-methyl-3-(1-methyl-7-((6-methylpyridin-3-yl)amino)-2-oxo-1,4-dihydropyrimido[4,5-d]pyrimidin-3(2H)-yl)phenyl)-2-oxo-5-phenyl-2,3-dihydro-1H-benzo[e][1,4]diazepine-8-carboxamide]	–	–
1 to 200 nM	1 to 200 nM	C=CCCC1=N[C@@H](CC(=O)Nc2ccc(C)c(N3Cc4cnc(Nc5ccc(C)nc5)nc4N(C)C3=O)c2)C(=O)Nc2ccccc21 [Example 44, (S)-2-(5-(but-3-en-1-yl)-2-oxo-2,3-dihydro-1H-benzo[e][1,4]diazepin-3-yl)-N-(4-methyl-3-(1-methyl-7-((6-methylpyridin-3-yl)amino)-2-oxo-1,4-dihydropyrimido[4,5-d]pyrimidin-3(2H)-yl)phenyl)acetamide]	–	–
1 to 200 nM	1 to 200 nM	C=CCCC1=N[C@@H](CC(=O)Nc2ccc(C)c(N3Cc4cnc(Nc5ccc(C)nc5)nc4N(C)C3=O)c2)C(=O)N(Cc2ccccc2)c2ccccc21 [Example 46, (S)-2-(1-benzyl-5-(but-3-en-1-yl)-2-oxo-2,3-dihydro-1H-benzo[e][1,4]diazepin-3-yl)-N-(4-methyl-3-(1-methyl-7-((6-methylpyridin-3-yl)amino)-2-oxo-1,4-dihydropyrimido[4,5-d]pyrimidin-3(2H)-yl)phenyl)acetamide]	–	–
1 to 200 nM	1 to 200 nM	Cc1ccc(Nc2ncc3c(n2)N(C)C(=O)N(c2cc(C(=O)N[C@H](C(=O)N4CCC[C@H]4C(=O)N[C@@H](Cc4ccccc4)C(=O)N[C@@H](CC(C)C)C(=O)N(C)C)C(C)C)ccc2C)C3)cn1 [Example 11] (X1-VPFL-NMe2)	–	–
1 to 200 nM	1 to 200 nM	CC1=N[C@@H](CC(C)C)C(=O)N(Cc2ccccc2)c2cc(C(=O)Nc3ccc(C)c(N4Cc5cnc(Nc6ccc(C)nc6)nc5N(C)C4=O)c3)ccc21 [Example 41, (S)-1-benzyl-3-isobutyl-5-methyl-N-(4-methyl-3-(1-methyl-7-((6-methylpyridin-3-yl)amino)-2-oxo-1,4-dihydropyrimido[4,5-d]pyrimidin-3(2H)-yl)phenyl)-2-oxo-2,3-dihydro-1H-benzo[e][1,4]diazepine-8-carboxamide]	–	–
1 to 200 nM	1 to 200 nM	Cc1ccc(Nc2ncc3c(n2)N(C)C(=O)N(c2cc(NC(=O)c4ccc5c(c4)N(CC(=O)NCc4ccccc4)C(=O)[C@H](CC(C)C)N=C5c4ccccc4)ccc2C)C3)cn1 [Example 43, (S)-1-(2-(benzylamino)-2-oxoethyl)-3-isobutyl-N-(4-methyl-3-(1-methyl-7-((6-methylpyridin-3-yl)amino)-2-oxo-1,4-dihydropyrimido[4,5-d]pyrimidin-3(2H)-yl)phenyl)-2-oxo-5-phenyl-2,3-dihydro-1H-benzo[e][1,4]diazepine-8-carboxamide]	–	–
1 to 200 nM	400 to 600 nM	Cc1ccc(Nc2ncc3c(n2)N(C)C(=O)N(c2cc(NC(=O)c4ccc5c(c4)N(CC(C)C)C(=O)[C@H](CC(C)C)N=C5c4ccccc4)ccc2C)C3)cn1 [Example 39, (S)-1,3-diisobutyl-N-(4-methyl-3-(1-methyl-7-((6-methylpyridin-3-yl)amino)-2-oxo-1,4-dihydropyrimido[4,5-d]pyrimidin-3(2H)-yl)phenyl)-2-oxo-5-phenyl-2,3-dihydro-1H-benzo[e][1,4]diazepine-8-carboxamide]	–	–
1 to 200 nM	1 to 200 nM	COCCN1C(=O)[C@H](CC(C)C)N=C(c2ccccc2)c2ccc(C(=O)Nc3ccc(C)c(N4Cc5cnc(Nc6ccc(C)nc6)nc5N(C)C4=O)c3)cc21 [Example 42, (S)-3-isobutyl-1-(2-methoxyethyl)-N-(4-methyl-3-(1-methyl-7-((6-methylpyridin-3-yl)amino)-2-oxo-1,4-dihydropyrimido[4,5-d]pyrimidin-3(2H)-yl)phenyl)-2-oxo-5-phenyl-2,3-dihydro-1H-benzo[e][1,4]diazepine-8-carboxamide]	–	–

Further lines, the molecule ahead of its results:

Compound	IC50 (LCK; read-out: LCK IC50)	IC50 (c-Src; read-out: c-Src IC50)	IC50 (LCK)	IC50 (c-Src)
Cc1ccc(Nc2ncc3c(n2)N(C)C(=O)N(c2cc(C(=O)N[C@H](C(=O)N4CCC[C@@H]4C(=O)N[C@H](C(=O)N[C@H](C)c4ccccc4)C(C)C)C(C)C)ccc2C)C3)cn1 [Example 8, (R)—N—((S)-3-methyl-1-oxo-1-(((R)-1-phenylethyl)amino)butan-2-yl)-1-((4-methyl-3-(1-methyl-7-((6-methylpyridin-3-yl)amino)-2-oxo-1,4-dihydropyrimido[4,5-d]pyrimidin-3(2H)-yl)benzoyl)-L-valyl)pyrrolidine-2-carboxamide]	400 to 600 nM	> 600 nM	–	–
Cc1ccc(Nc2ncc3c(n2)N(C)C(=O)N(c2cc(C(=O)N[C@H](C(=O)N4CCC[C@H]4C(=O)NCC(=O)N[C@@H](CC(C)C)C(=O)N(C)C)C(C)C)ccc2C)C3)cn1 [Example 6, (S)—N-(2-(((S)-1-(dimethylamino)-4-methyl-1-oxopentan-2-yl)amino)-2-oxoethyl)-1-((4-methyl-3-(1-methyl-7-((6-methylpyridin-3-yl)amino)-2-oxo-1,4-dihydropyrimido[4,5-d]pyrimidin-3(2H)-yl)benzoyl)-L-valyl)pyrrolidine-2-carboxamide] (X1-VPGL-NMe2)	–	–	1 to 200 nM	> 600 nM
Cc1ccc(Nc2ncc3c(n2)N(C)C(=O)N(c2cc(C(=O)N[C@H](C(=O)N4CCC[C@H]4C(=O)NC(C)(C)C(=O)NCC(=O)N(C)C)C(C)C)ccc2C)C3)cn1 [Example 14, (S)—N-(1-((2-(dimethylamino)-2-oxoethyl)amino)-2-methyl-1-oxopropan-2-yl)-1-((4-methyl-3-(1-methyl-7-((6-methylpyridin-3-yl)amino)-2-oxo-1,4-dihydropyrimido[4,5-d]pyrimidin-3(2H)-yl)benzoyl)-L-valyl)pyrrolidine-2-carboxamide] (X1-VP[Aib]G-NMe2)	–	–	1 to 200 nM	> 600 nM
Cc1ccc(Nc2ncc3c(n2)N(C)C(=O)N(c2cc(C(=O)N[C@H](C(=O)N4CCC[C@@H]4C(=O)NC4(C(=O)N[C@@H](CC(C)C)C(=O)N(C)C)CC4)C(C)C)ccc2C)C3)cn1 [Example 3, (R)—N-(1-(((S)-1-(dimethylamino)-4-methyl-1-oxopentan-2-yl)carbamoyl)cyclopropyl)-1-((4-methyl-3-(1-methyl-7-((6-methylpyridin-3-yl)amino)-2-oxo-1,4-dihydropyrimido[4,5-d]pyrimidin-3(2H)-yl)benzoyl)-L-valyl)pyrrolidine-2-carboxamide] (X1-V[dP][Ac3c]L-NMe2)	–	–	1 to 200 nM	> 600 nM
Cc1ccc(Nc2ncc3c(n2)N(C)C(=O)N(c2cc(C(=O)N[C@@H](Cc4ccccc4)C(=O)N4CCC[C@H]4C(=O)NC(C)(C)C(=O)N[C@H](C(=O)N(C)C)C(C)C)ccc2C)C3)cn1 [Example 24, (S)—N-(1-(((S)-1-(dimethylamino)-3-methyl-1-oxobutan-2-yl)amino)-2-methyl-1-oxopropan-2-yl)-1-((4-methyl-3-(1-methyl-7-((6-methylpyridin-3-yl)amino)-2-oxo-1,4-dihydropyrimido[4,5-d]pyrimidin-3(2H)-yl)benzoyl)-L-phenylalanyl)pyrrolidine-2-carboxamide] (X1-FP[Aib]V-NMe2)	1 to 200 nM	> 600 nM	–	–
Cc1ccc(Nc2ncc3c(n2)N(C)C(=O)N(c2cc(C(=O)N[C@H](C(=O)N4CCC[C@H]4C(=O)NC4(C(=O)N[C@@H](CC(C)C)C(=O)N(C)C)CC4)C(C)C)ccc2C)C3)cn1 [Example 4, (S)—N-(1-(((S)-1-(dimethylamino)-4-methyl-1-oxopentan-2-yl)carbamoyl)cyclopropyl)-1-((4-methyl-3-(1-methyl-7-((6-methylpyridin-3-yl)amino)-2-oxo-1,4-dihydropyrimido[4,5-d]pyrimidin-3(2H)-yl)benzoyl)-L-valyl)pyrrolidine-2-carboxamide] (X1-VP[Ac3c]L-NMe2)	–	–	1 to 200 nM	200 to 400 nM
Cc1ccc(Nc2ncc3c(n2)N(C)C(=O)N(c2cc(C(=O)N[C@H](C(=O)N4CCC[C@@H]4C(=O)NCC(=O)N[C@@H](CC(C)C)C(=O)N(C)C)C(C)C)ccc2C)C3)cn1 [Example 5, (R)—N-(2-(((S)-1-(dimethylamino)-4-methyl-1-oxopentan-2-yl)amino)-2-oxoethyl)-1-((4-methyl-3-(1-methyl-7-((6-methylpyridin-3-yl)amino)-2-oxo-1,4-dihydropyrimido[4,5-d]pyrimidin-3(2H)-yl)benzoyl)-L-valyl)pyrrolidine-2-carboxamide] (X1-V[dP]GL-NMe2)	–	–	1 to 200 nM	> 600 nM

— patent US11530221B2, “Pyrimido[4,5-d]pyrimidin-2-one derivatives as protein kinase inhibitors” (KOREA INSTITUTE OF SCIENCE AND TECHNOLOGY, priority 2019, dated 2022)
